Source: patent US20070265170A1, “DETECTION, PREVENTION AND TREATMENT OF OVARIAN CANCER” (priority 2006, published 2007)

Tests used:
β3GlcNAcT = β3GlcNAcT acceptor specificity; conditions: acceptor substrate; lactose (4) = 100%
[1] = system: anti-carbohydrate antibodies in sera of metastatic breast cancer patients; assay: Glycan array with sera of metastatic breast cancer patients; type: binding, human; conditions: sera diluted 1:25; for binding by antibodies from metastatic breast cancer patients: 9 MBC patients; for level of serum antibodies against the glycan in MBC patients compared to healthy individuals: relative fluorescence, FIG. 8-9
Procedure: Individual (not pooled) sera were collected from 9 patients who were diagnosed with metastatic breast cancer (MBC). Blood samples were collected before treatment, so that therapeutic intervention would not interfere with patient immune responses. One patient with breast cancer but with good prognosis (IDC, Stage 1) was also included in the study. As control, or “healthy” sera, sera from ten healthy individuals, 5 female and 5 male, with no known malignancies was collected.
Sera were diluted 1:25 with PBS containing 3% BSA, and placed on the glycan array slide in humidified chamber at room temperature for 90 min. The glycan array slide was then rinsed gently with PBS/0.05% Tween, incubated with biotinylated goat antibody against human IgG, IgM and IgA, rinsed in PBS/0.05% Tween, and incubated with streptavidin-Alexa488 fluorescent dye. Following rinses in PBS/0.05% Tween and H2O, glycan array slides were dried and scanned using the commercial DNA array scanner. […] Signal to background was typically greater 50:1 and no background subtractions were performed. Data were plotted using MS Excel software.

[2] = system: Human anti-HIV 2G12 monoclonal antibody; assay: Glycan array binding of 2G12; conditions: 2G12 30 μg/mL pre-complexed with goat anti-human-IgG-FITC
Text: Glycan array fabrication.
Glycan Binding Protein binding assay.
Image acquisition and signal processing. […] Data were plotted using MS Excel software.

chicken ST6GalNAc-I = molecular target: T1, chicken ST6GalNAc-I (Gallus gallus, UniProt Q92183); assay: chST6GalNAc-I activity on small acceptor molecules; type: biochemical; conditions: α-D-galacto derivatives as acceptors
T1 construct: made in house; host or cells: insect cells
Text: The inventors have previously reported the cloning, expression, and characterization of chicken ST6GalNAc-I and its use in preparative synthesis of the O-linked sialoside antigens, STn-, α(2-6)SiaT-, α(2-3)SiaT- and Di-SiaT-antigen. Blixt, O.; Allin, K.; Pereira, L.; Datta, A. and Paulson, J. C., J. Am. Chem. Soc. 2002, 124, 5739-5746. Briefly, the recombinant enzyme was expressed in insect cells and purified by CDP-sepharose affinity chromatography to generate approximately 10 U/L of cell culture.

T1 sequence (Q92183 whole entry): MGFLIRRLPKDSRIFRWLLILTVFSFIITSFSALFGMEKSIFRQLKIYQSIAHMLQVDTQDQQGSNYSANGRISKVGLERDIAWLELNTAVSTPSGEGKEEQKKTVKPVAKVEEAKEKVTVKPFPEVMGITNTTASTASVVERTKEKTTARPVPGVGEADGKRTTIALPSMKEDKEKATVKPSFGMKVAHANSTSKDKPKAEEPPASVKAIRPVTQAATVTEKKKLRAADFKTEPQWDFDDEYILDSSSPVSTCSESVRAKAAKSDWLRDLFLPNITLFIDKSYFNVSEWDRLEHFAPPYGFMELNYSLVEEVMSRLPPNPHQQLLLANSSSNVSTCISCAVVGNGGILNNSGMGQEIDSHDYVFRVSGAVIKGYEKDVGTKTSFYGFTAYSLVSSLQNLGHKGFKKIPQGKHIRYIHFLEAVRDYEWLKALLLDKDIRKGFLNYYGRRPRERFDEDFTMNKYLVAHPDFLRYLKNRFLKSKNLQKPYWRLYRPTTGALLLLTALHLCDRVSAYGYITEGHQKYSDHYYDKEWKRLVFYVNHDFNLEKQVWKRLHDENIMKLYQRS

Molecule | binding by antibodies from metastatic breast cancer patients [1] | level of serum antibodies against the glycan in MBC patients compared to healthy individuals [1] | also measured
OCC1O[C@@H](O)C(O)[C@@H](O)[C@@H]1O[C@@H]1OC(CO)[C@H](O)[C@H](O)C1O (stereo partly drawn) [Compound 4] |  |  | Relative enzyme activity (%) β(1-3)GlcNAcT-activity (β3GlcNAcT): 100%
Ab3ANb4[NNa3]Ab4Gb#sp1 GM1 [Glycan 58] | bind | higher than in the healthy individuals | 
GNb3Ab4Gb#sp1 LNT-2 [Glycan 123] | bind | higher than in the healthy individuals | 
Man-9#aa Man9-aminoacid [Glycan 145] |  |  | 2G12 binding to arrayed glycan [2]: smaller level of binding
CC(=O)N[C@H]1C(O)O[C@H](CO)[C@H](O)[C@@H]1O (stereo partly drawn) [D-GalNAc] |  |  | chST6GalNac-I Activity, cpm (chicken ST6GalNAc-I): 0 cpm; chST6GalNac-I Activity, nmol/mg × min^−1 (chicken ST6GalNAc-I): 0.00 nmol/mg × min^−1
NJa6ANa#sp2 Neu5Gc6GalNAc (STn) [Glycan 155] | bind |  | 
Fa2Ab3Anb3Aa4Ab4G#sp3 Globo-H [Glycan 97] | bind | higher than in the healthy individuals | 
NNa6ANa#sp2 6SiaβGalNAc [Glycan 190] | bind | significantly higher levels | 
Ceruloplasmine (protein, UniProt P00450 20-1065, looked up) Ceruloplasmin: KEKHYYIGIIETTWDYASDHGEKKLISVDTEHSNIYLQNGPDRIGRLYKKALYLQYTDETFRTTIEKPVWLGFLGPIIKAETGDKVYVHLKNLASRPYTFHSHGITYYKEHEGAIYPDNTTDFQRADDKVYPGEQYTYMLLATEEQSPGEGDGNCVTRIYHSHIDAPKDIASGLIGPLIICKKDSLDKEKEKHIDREFVVMFSVVDENFSWYLEDNIKTYCSEPEKVDKDNEDFQESNRMYSVNGYTFGSLPGLSMCAEDRVKWYLFGMGNEVDVHAAFFHGQALTNKNYRIDTINLFPATLFDAYMVAQNPGEWMLSCQNLNHLKAGLQAFFQVQECNKSSSKDNIRGKHVRHYYIAAEEIIWNYAPSGIDIFTKENLTAPGSDSAVFFEQGTTRIGGSYKKLVYREYTDASFTNRKERGPEEEHLGILGPVIWAEVGDTIRVTFHNKGAYPLSIEPIGVRFNKNNEGTYYSPNYNPQSRSVPPSASHVAPTETFTYEWTVPKEVGPTNADPVCLAKMYYSAVEPTKDIFTGLIGPMKICKKGSLHANGRQKDVDKEFYLFPTVFDENESLLLEDNIRMFTTAPDQVDKEDEDFQESNKMHSMNGFMYGNQPGLTMCKGDSVVWYLFSAGNEADVHGIYFSGNTYLWRGERRDTANLFPQTSLTLHMWPDTEGTFNVECLTTDHYTGGMKQKYTVNQCRRQSEDSTFYLGERTYYIAAVEVEWDYSPQREWEKELHHLQEQNVSNAFLDKGEFYIGSKYKKVVYRQYTDSTFRVPVERKAEEEHLGILGPQLHADVGDKVKIIFKNMATRPYSIHAHGVQTESSTVTPTLPGETLTYVWKIPERSGAGTEDSACIPWAYYSTVDQVKDLYSGLIGPLIVCRRPYLKVFNPRRKLEFALLFLVFDENESWYLDDNIKTYSDHPEKVNKDDEEFIESNKMHAINGRMFGNLQGLTMHVGDEVNWYLMGMGNEIDLHTVHFHGHSFQYKHRGVYSSDVFDIFPGTYQTLEMFPRTPGIWLLHCHVTDHIHAGMETTYTVLQNEDTKSG | bind | significantly higher levels | 
